Assay results: patent publication US20050209278A1, “Piperidinyl- and piperazinyl-sulfonylmethyl hydroxamic acids and their use as protease inhibitors” (priority 2002, published 2005)
Where two headings read alike, the source gives them in different places.

Columns and labels:
[1] = target: T1, MMP-13 (Homo sapiens, UniProt P45452); test: In vitro MMP inhibition, Ki determination (fluorogenic substrate II); format: biochemical; conditions: read-out: MMP-13 Ki
T1 construct: made in house; host or cells: baculovirus / insect cells
In short: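 Room-temperature, 1 h incubation of APMA-activated recombinant human MMP-13 with 4 μM quenched substrate II (cleaved at Gly-Leu) in pH 7.5 Tris/NaCl/CaCl2 buffer. Inhibition appears as a slowed rise in 330/420 nm fluorescence. Single low enzyme and substrate levels were used for Ki.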

[2] = target: T2, MMP-14 (Homo sapiens, UniProt P50281); test: as above; format: biochemical; conditions: read-out: MMP-14 Ki
T2 construct: The catalytic domain enzyme was expressed in E. coli inclusion bodies, solubilized in urea; made in house
In short: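 Apparent Ki was fitted with Morrison's equation from reaction rates at a single low enzyme level. Enzyme was APMA- or trypsin-activated refolded MMP-14 catalytic domain, buffered at pH 7.5 with 10 mM CaCl2.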

| SMILES | Ki ([1]; value not in parenthesis) | Ki ([2]; value not in parenthesis) | Ki ([1]; value outside parentheses) | Ki ([2]; value outside parentheses) |
| --- | --- | --- | --- | --- |
| O=C(NO)C1(S(=O)(=O)N2CCN(c3ccc(COCC(F)(F)F)cc3)CC2)CCOCC1 [Example 72] | 0.85 nM | 7570 nM | – | – |
| CCCCOc1ccc(N2CCN(S(=O)(=O)C3(C(=O)NO)CCN(C(=O)c4ccccn4)CC3)CC2)cc1 [Example 277] | – | – | 0.23 nM | 3020 nM |
| CCCCOc1ccc(N2CCN(S(=O)(=O)C3(C(=O)NO)CCN(C(=O)CO)CC3)CC2)cc1 [Example 271] | – | – | 0.452 nM | 1460 nM |
| CC(C)COc1ccc(N2CCN(S(=O)(=O)C3(C(=O)NO)CCOCC3)CC2)cc1Cl [Example 79] | 6.62 nM | 8820 nM | – | – |
| O=C(NO)C1(S(=O)(=O)N2CCN(c3ccc(OC4CCC4)c(F)c3)CC2)CCOCC1 [Example 73] | 9.78 nM | 2360 nM | – | – |
| CCCCc1ccc(N2CCN(S(=O)(=O)C3(C(=O)NO)CCN(c4cccnc4)CC3)CC2)nc1 [Example 96] | 0.44 nM | 816 nM | – | – |
| O=C(NO)C1(S(=O)(=O)N2CCN(c3ccc(OCc4ccccc4)cn3)CC2)CCOCC1 [Example 74] | 0.06 nM | 454 nM | – | – |
| CCCCOc1ccc(N2CCN(S(=O)(=O)C3(C(=O)NO)CCN(c4ccc(C(F)(F)F)cn4)CC3)CC2)cc1 [Example 257] | – | – | 12.9 nM | > 10000 nM |
| O=C(NO)C1(S(=O)(=O)N2CCN(c3ccc(-c4ccccc4)cc3)CC2)CCOCC1 [Example 76] | 0.4 nM | 358 nM | – | – |
| O=C(NO)C1(S(=O)(=O)N2CCN(c3cccc(C(F)(F)F)c3)CC2)CCOCC1 [Example 82] | 7.49 nM | 1600 nM | – | – |
| O=C(NO)C1(S(=O)(=O)N2CCN(c3ccc(SC(F)(F)F)cc3)CC2)CCS(=O)(=O)CC1 [Example 258] | – | – | 30.5 nM | 4890 nM |
| CCCCOc1ccc(N2CCN(S(=O)(=O)C3(C(=O)NO)CCN(C(N)=O)CC3)CC2)cc1 [Example 253] | – | – | 0.357 nM | 1930 nM |
| CCCCOc1ccc(N2CCN(S(=O)(=O)C3(C(=O)NO)CCN(C(=O)c4cccnc4)CC3)CC2)cc1 [Example 266] | – | – | 0.308 nM | 2390 nM |
| CCCCOc1ccc(N2CCN(S(=O)(=O)C3(C(=O)NO)CCN(c4ccc(Cl)cc4)CC3)CC2)cc1 [Example 251] | – | – | 12.9 nM | > 10000 nM |
| CCCCc1ccc(N2CCN(S(=O)(=O)C3(C(=O)NO)CCOCC3)CC2)c(F)c1 [Example 91] | 1.64 nM | 1740 nM | – | – |
| CCCCc1ccc(N2CCN(S(=O)(=O)C3(C(=O)NO)CCN(CCOC)CC3)CC2)nc1 [Example 270] | – | – | 0.339 nM | 1110 nM |

| SMILES | Ki ([1]; value not in parenthesis) | Ki ([2]; value not in parenthesis) | Ki ([1]; value outside parentheses) | Ki ([2]; value outside parentheses) |
| --- | --- | --- | --- | --- |
| CCCCOc1ccc(N2CCN(S(=O)(=O)C3(C(=O)NO)CCN(C(=O)N(C)C)CC3)CC2)cc1 [Example 254] | – | – | 0.1 nM | 856 nM |
| CCCCOc1ccc(N2CCN(S(=O)(=O)C3(C(=O)NO)CCN(C(=O)C4CC4)CC3)CC2)cc1 [Example 260] | – | – | 0.301 nM | 2800 nM |
| CCc1ccc(N2CCN(S(=O)(=O)C3(C(=O)NO)CCCC3)CC2)nc1 [Example 261] | – | – | 0.458 nM | 48.1 nM |
| CCCCOc1ccc(N2CCN(S(=O)(=O)C3(C(=O)NO)CCN(c4ccccc4)CC3)CC2)cc1 [Example 264] | – | – | 0.048 nM | > 10000 nM |
| CCCCOc1ccc(N2CCN(S(=O)(=O)C3(C(=O)NO)CCN(c4nc5ccccc5s4)CC3)CC2)cc1 [Example 93] | 26 nM | 9860 nM | – | – |
| COCCN1CCC(C(=O)NO)(S(=O)(=O)N2CCN(c3ccc(OCCCCF)cc3)CC2)CC1 [Example 88] | 0.18 nM | 2760 nM | – | – |
| O=C(NO)C1(S(=O)(=O)N2CCN(c3ccc(OCCCC(F)(F)F)cn3)CC2)CCOCC1 [Example 83] | 0.048 nM | 981 nM | – | – |
| CCCCOc1ccc(N2CCN(S(=O)(=O)C3(C(=O)NO)CCN(C(=O)CCCC)CC3)CC2)cc1 [Example 278] | – | – | 0.49 nM | 5260 nM |
| CCCCc1ccc(N2CCN(S(=O)(=O)C3(C(=O)NO)CCN(c4ncccn4)CC3)CC2)nc1 [Example 99] | 0.3 nM | 225 nM | – | – |
| CCc1ccc(N2CCN(S(=O)(=O)C3(C(=O)NO)CCCCC3)CC2)nc1 [Example 263] | – | – | 0.262 nM | 34 nM |
| CCCCOc1ccc(N2CCN(S(=O)(=O)C3(C(=O)NO)CCN(C(=O)c4ccncc4)CC3)CC2)cc1 [Example 259] | – | – | 0.359 nM | 2650 nM |
| CCCCOc1ccc(N2CCN(S(=O)(=O)C3(C(=O)NO)CCN(c4ccc(C)nn4)CC3)CC2)cc1 [Example 275] | – | – | 0.216 nM | 818 nM |
| CCCCOc1ccc(N2CCN(S(=O)(=O)C3(C(=O)NO)CCNCC3)CC2)cc1 [Example 276] | – | – | 2.49 nM | > 10000 nM |
| CCCCOc1ccc(N2CCN(S(=O)(=O)C3(C(=O)NO)CCN(C(=O)CC)CC3)CC2)cc1 [Example 274] | – | – | 0.484 nM | 3030 nM |
| CCCCCc1ccc(N2CCN(S(=O)(=O)C3(C(=O)NO)CCN(C4CC4)CC3)CC2)cc1 [Example 272] | – | – | 0.33 nM | 4350 nM |
| O=C(NO)C1(S(=O)(=O)N2CCN(c3ccc(COCC(F)(F)C(F)F)cc3)CC2)CCOCC1 [Example 71] | 0.79 nM | – | – | – |

The remaining lines, values ahead:

| Ki ([1]; value not in parenthesis) | Ki ([2]; value not in parenthesis) | Ki ([1]; value outside parentheses) | Ki ([2]; value outside parentheses) | SMILES |
| --- | --- | --- | --- | --- |
| – | – | 9.13 nM | 8650 nM | CCCCOc1ccc(N2CCN(S(=O)(=O)C3(C(=O)NO)CCN(c4ccc(C)cc4)CC3)CC2)cc1 [Example 295] |
| – | – | 0.2 nM | 2040 nM | COCCN1CCC(C(=O)NO)(S(=O)(=O)N2CCC(c3ccc(CCC(F)(F)C(F)(F)F)cc3)CC2)CC1 [Example 312] |
| – | – | 0.27 nM | 1480 nM | CCCCOc1ccc(N2CCN(S(=O)(=O)C3(C(=O)NO)CCN(C(C)=O)CC3)CC2)cc1 [Example 282] |
| – | – | 1.56 nM | > 10000 nM | COCCN1CCC(C(=O)NO)(S(=O)(=O)N2CCC(c3ncc(CC(C)C)s3)CC2)CC1 [Example 311] |
| – | – | 5.97 nM | > 10000 nM | CCCCOc1ccc(N2CCN(S(=O)(=O)C3(C(=O)NO)CCNCC3)CC2)cc1F [Example 286] |
| – | – | 3.04 nM | > 10000 nM | Cc1cc(N2CCN(S(=O)(=O)C3(C(=O)NO)CCOCC3)CC2)ccc1OC(C)C [Example 299] |
| – | – | 3.33 nM | 6940 nM | COCCN1CCC(C(=O)NO)(S(=O)(=O)N2CCN(c3ccc(Oc4ccccc4)cc3)CC2)CC1 [Example 287] |
| – | – | 42.7 nM | > 10000 nM | CS(=O)(=O)c1ccc(N2CCN(S(=O)(=O)C3(C(=O)NO)CCOCC3)CC2)cc1 [Example 300] |
| – | – | 0.702 nM | > 10000 nM | CCCCOc1ccc(N2CCN(S(=O)(=O)C3(C(=O)NO)CCN(CC4CC4)CC3)CC2)cc1 [Example 298] |
| – | – | 0.442 nM | 1630 nM | CCCCOc1ccc(N2CCN(S(=O)(=O)C3(C(=O)NO)CCN(c4ccc(Cl)nn4)CC3)CC2)cc1 [Example 281] |
| – | – | 0.268 nM | 4820 nM | COCCN1CCC(C(=O)NO)(S(=O)(=O)N2CCC(c3ccc(CCCC(F)(F)F)cc3)CC2)CC1 [Example 310] |
| – | – | 1.02 nM | 7310 nM | CCCCOc1ccc(N2CCN(S(=O)(=O)C3(C(=O)NO)CCN(C)CC3)CC2)cc1 [Example 280] |
| – | – | 1.4 nM | – | COCCOc1ccc(N2CCN(S(=O)(=O)C3(C(=O)NO)CCN(C4CC4)CC3)CC2)cc1F [Example 297] |
| – | – | 0.23 nM | – | CCCCOc1ccc(N2CCN(S(=O)(=O)C3(C(=O)NO)CCN(C4CC4)CC3)CC2)cc1 [Example 301] |
| – | – | 9.22 nM | – | CCCCOc1ccc(N2CCN(S(=O)(=O)C3(C(=O)NO)CCN(c4ccc(C)cc4)CC3)CC2)cc1F [Example 296] |
